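Dose response: 5 concentrations. Exposure: 48 h. Format: 96-well plates. Endpoint: linear interpolation; highest concentration if not reached. Abbreviation: GI50, concentration required for 50% inhibition of growth. TGI denotes the concentration required for complete inhibition of growth.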
Key:
Experiment in all cases: inhibition of tumour cell growth, NCI panel, 48 h
A498 renal = test system: A498 renal
HCC-2998 colon = test system: HCC-2998 colon
HT29 colon = test system: HT29 colon
IGROV1 ovarian = test system: IGROV1 ovarian
NCI-H522 lung = test system: NCI-H522 lung
OVCAR-5 ovarian = test system: OVCAR-5 ovarian
RPMI-8226 leukemia = test system: RPMI-8226 leukemia
SF-268 CNS = test system: SF-268 CNS
SNB-19 CNS = test system: SNB-19 CNS
UACC-62 melanoma = test system: UACC-62 melanoma

`Oc1ccc(NCc2nc3ccccc3[nH]2)cc1` was tested, and the GI50 (A498 renal) was 14.7 µM, the TGI (A498 renal) was over 100 µM and the GI50 (HCC-2998 colon) was 74.2 µM. For the same molecule, the TGI (HCC-2998 colon) was over 100 µM, the GI50 (HT29 colon) was over 100 µM and the TGI (HT29 colon) was over 100 µM. The GI50 (IGROV1 ovarian) was 76.4 µM, the TGI (IGROV1 ovarian) was over 100 µM and the GI50 (NCI-H522 lung) was 27.7 µM. For the same molecule, the TGI (NCI-H522 lung) was over 100 µM, the GI50 (OVCAR-5 ovarian) was over 100 µM and the TGI (OVCAR-5 ovarian) was over 100 µM. It also gave a GI50 (RPMI-8226 leukemia) of 72.8 µM, a TGI (RPMI-8226 leukemia) of over 100 µM and a GI50 (SF-268 CNS) of 35.3 µM. It also gave a TGI (SF-268 CNS) of over 100 µM, a GI50 (SNB-19 CNS) of 33.6 µM and a TGI (SNB-19 CNS) of over 100 µM. It also gave a GI50 (UACC-62 melanoma) of 70.5 µM and a TGI (UACC-62 melanoma) of over 100 µM.
`O=C(/C=C/c1c(O)ccc2ccccc12)c1cccc(O)c1` showed a TGI (A498 renal) of over 100 µM, a TGI (HCC-2998 colon) of over 100 µM and a TGI (HT29 colon) of over 100 µM. The TGI (IGROV1 ovarian) was over 100 µM, the TGI (NCI-H522 lung) was over 100 µM and the TGI (OVCAR-5 ovarian) was over 100 µM. It also gave a TGI (RPMI-8226 leukemia) of over 100 µM, a TGI (SF-268 CNS) of over 100 µM and a TGI (SNB-19 CNS) of over 100 µM. For the same molecule, the TGI (UACC-62 melanoma) was 69.1 µM.
Work on `CN1CCN(C)C12C=c1ccccc1=CC21CC1` yielded a TGI (A498 renal) of over 100 µM, a TGI (HCC-2998 colon) of 30.4 µM and a TGI (HT29 colon) of 32.7 µM. It also gave a TGI (IGROV1 ovarian) of over 100 µM, a TGI (NCI-H522 lung) of 52.9 µM and a TGI (OVCAR-5 ovarian) of over 100 µM. The TGI (RPMI-8226 leukemia) was 75.1 µM, the TGI (SF-268 CNS) was over 77 µM and the TGI (SNB-19 CNS) was over 100 µM. The TGI (UACC-62 melanoma) was 34 µM.
For `CC[CH2][Sn]([CH2]CC)([O]C(=O)c1cccnc1SC)[O][Sn]([CH2]CC)([CH2]CC)[O]C(=O)c1cccnc1SC`, the GI50 (A498 renal) was 0.246 µM, the TGI (A498 renal) was 0.629 µM and the GI50 (HCC-2998 colon) was 0.642 µM. It also gave a TGI (HCC-2998 colon) of 1.92 µM, a GI50 (HT29 colon) of 1.1 µM and a TGI (HT29 colon) of 3.33 µM. It also gave a GI50 (IGROV1 ovarian) of 1.26 µM, a TGI (IGROV1 ovarian) of 3.79 µM and a GI50 (NCI-H522 lung) of under 0.0196 µM. It also gave a TGI (NCI-H522 lung) of 0.0784 µM, a GI50 (OVCAR-5 ovarian) of 2.09 µM and a TGI (OVCAR-5 ovarian) of 3.64 µM. It also gave a GI50 (RPMI-8226 leukemia) of 0.139 µM, a TGI (RPMI-8226 leukemia) of over 100 µM and a GI50 (SF-268 CNS) of 0.33 µM. The TGI (SF-268 CNS) was 0.969 µM, the GI50 (SNB-19 CNS) was 0.83 µM and the TGI (SNB-19 CNS) was 2.22 µM. The GI50 (UACC-62 melanoma) was 0.343 µM and the TGI (UACC-62 melanoma) was 0.809 µM.
In the case of `O=c1[nH]ncc(Br)c1Br`, the GI50 (A498 renal) is reported as 11.8 µM, the TGI (A498 renal) is reported as 24 µM and the GI50 (HCC-2998 colon) is reported as 1.89 µM. The TGI (HCC-2998 colon) was 3.38 µM, the GI50 (HT29 colon) was 1.9 µM and the TGI (HT29 colon) was 3.5 µM. The GI50 (IGROV1 ovarian) was 1.72 µM, the TGI (IGROV1 ovarian) was 3.68 µM and the GI50 (NCI-H522 lung) was 1.71 µM. It also gave a TGI (NCI-H522 lung) of 3.25 µM, a GI50 (OVCAR-5 ovarian) of 1.69 µM and a TGI (OVCAR-5 ovarian) of 3.08 µM. For the same molecule, the GI50 (RPMI-8226 leukemia) was 1.91 µM, the TGI (RPMI-8226 leukemia) was 6.18 µM and the GI50 (SF-268 CNS) was 3.02 µM. It also gave a TGI (SF-268 CNS) of 12.6 µM, a GI50 (SNB-19 CNS) of 5.32 µM and a TGI (SNB-19 CNS) of 18.9 µM. The GI50 (UACC-62 melanoma) was 1.27 µM and the TGI (UACC-62 melanoma) was 2.58 µM.
With `CC[C@]1(O)C[C@@H]2CN(CCc3c([nH]c4ccccc34)[C@@](C(=O)OC)(c3cc4c(cc3OC)N(C)[C@H]3[C@@](O)(C(=O)OC)[C@H](OC(C)=O)[C@]5(CC)C=CCN6CC[C@]43[C@@H]65)C2)C1` the GI50 (A498 renal) was under 0.01 µM, the TGI (A498 renal) was under 0.01 µM and the GI50 (HCC-2998 colon) was under 0.01 µM. The TGI (HCC-2998 colon) was 7.74 µM, the GI50 (HT29 colon) was under 0.01 µM and the TGI (HT29 colon) was 18.9 µM. The GI50 (IGROV1 ovarian) was under 0.01 µM, the TGI (IGROV1 ovarian) was 13 µM and the GI50 (NCI-H522 lung) was under 0.01 µM. For the same molecule, the GI50 (OVCAR-5 ovarian) was under 0.01 µM, the TGI (OVCAR-5 ovarian) was 87.7 µM and the GI50 (RPMI-8226 leukemia) was under 0.01 µM. For the same molecule, the TGI (RPMI-8226 leukemia) was 8.54 µM, the GI50 (SF-268 CNS) was under 0.0281 µM and the TGI (SF-268 CNS) was 19.5 µM. It also gave a GI50 (SNB-19 CNS) of under 0.01 µM, a TGI (SNB-19 CNS) of over 100 µM and a GI50 (UACC-62 melanoma) of under 0.01 µM. The TGI (UACC-62 melanoma) was 17.4 µM.
For `Oc1ccc2ccccc2c1N=Nc1nccs1`, the GI50 (A498 renal) was 10.5 µM, the TGI (A498 renal) was over 96.7 µM and the GI50 (HCC-2998 colon) was 3.61 µM. It also gave a TGI (HCC-2998 colon) of 33.2 µM, a GI50 (HT29 colon) of 1.72 µM and a TGI (HT29 colon) of 23.3 µM. For the same molecule, the GI50 (IGROV1 ovarian) was 0.172 µM, the TGI (IGROV1 ovarian) was 6.95 µM and the GI50 (NCI-H522 lung) was 2.22 µM. For the same molecule, the TGI (NCI-H522 lung) was 12.4 µM, the GI50 (OVCAR-5 ovarian) was 5.61 µM and the TGI (OVCAR-5 ovarian) was 25.6 µM. The GI50 (RPMI-8226 leukemia) was 0.187 µM, the GI50 (SF-268 CNS) was 0.312 µM and the TGI (SF-268 CNS) was over 100 µM. It also gave a TGI (SNB-19 CNS) of over 100 µM, a GI50 (UACC-62 melanoma) of 2.3 µM and a TGI (UACC-62 melanoma) of 24.3 µM.
`COc1ccc(-c2cc(=O)c3c(OC)c(OC)c(OC)cc3o2)cc1` showed a TGI (A498 renal) of 84 µM, a TGI (HCC-2998 colon) of 49 µM and a TGI (HT29 colon) of 99.5 µM. The TGI (IGROV1 ovarian) was over 100 µM, the TGI (NCI-H522 lung) was 85.3 µM and the TGI (OVCAR-5 ovarian) was over 100 µM. The TGI (RPMI-8226 leukemia) was over 100 µM, the TGI (SF-268 CNS) was over 100 µM and the TGI (SNB-19 CNS) was over 100 µM. It also gave a TGI (UACC-62 melanoma) of over 100 µM.
